Like-named read-outs stand apart in the source and are kept apart here.
Legend:
T-lymphocyte cells = assay: Cell Proliferation, T-Cell + Con A ([3H]thymidine incorporation); type: cell-based, balb/c mice; details: Mus musculus
Method: T-lymphocyte cells isolated from thymus of balb/c mice weighing 17±1 g were used. Test compound and/or vehicle is incubated with the cells (4×10^6/ml) in the presence of 3 μg/mL Concanavalin A (Con A) in AIM-V medium pH 7.4 at 37° C. for 24 hours. [^3H]Thymidine (120 nM) was then added for an additional overnight incubation period. Thymidine incorporation was assessed by liquid scintillation counting.
Test compound-induced suppression of cell proliferation by 50 percent or more (≧50%) relative to vehicle control response indicates significant inhibitory activity.

[1] = test system: Experimental Autoimmune Encephalomyelitis (EAE); assay: Chronic-progressive EAE, weekly treatment for 4 weeks (Example 2); type: in vivo, Hartley guinea pigs
Method: In the present experiment, female juvenile Hartley guinea pigs (225 g) were immunized with homogenized whole CNS (in saline) with an equal amount of complete Freund's Adjuvant and 10 mg added killed M. tuberculosis. The animals (>95%) show clinical signs starting on day 7 post immunization. An acute event of varying severity occurs between day 7 and day 20 followed by a continuous accumulation of clinical abnormality with hind limb paralysis, fecal impaction and incontinence. […] These clinical features indicate inflammation-induced lumbar spinal cord demyelination.
In these experiments, the immunized animals were nursed until day 40 or day 52 and then treated with 8 mg/kg and 16 mg/kg Symadex™ (intra cardiac), or 20 mg/kg and 40 mg/kg Symadex™ (i.p.) once a week for 4 weeks. Controls were given vehicle. Clinical signs were scored daily and the weights recorded. At the completion of the treatment period, the brain and spinal cord were dissected, formalin fixed and blocked for routine pathological examination of meningeal inflammation, perivascular infiltration (cuffing), parenchymal myelitis and demyelination by a blinded observer using hematoxylin-eosin and solochrome R cyanin stained sections.
Untreated, chronic EAE animals (n=5) were sacrificed on day 40, as well as non-EAE controls (n=5). Following each 10-day treatment interval, five animals from each group were sacrificed (0.25 ml sodium pentobarbital), blood samples were collected for FACS analysis (see below), and the brain and spinal cord dissected and sectioned. Three spinal sections were used, corresponding to lumbar, thoracic and cervical regions of the cord. The brain was cut into five transverse sections; the first three proximal sections were combined in one block, and the last two distal sections in another. Tissues were fixed in 10% formalin and embedded in paraffin. Five micrometer sections were stained with hematoxylin-eosin (H-E) or solochrome-R-cyanin (SCR) and evaluated by a blinded observer in each of the four categories: meningeal inflammation, perivascular infiltration, encephalitis or myelitis and demyelination (Table 2). The combined pathological score represents the total score (out of a potential 20) from all five CNS sections in each animal.
To quantify the abnormalities observed in the spinal cord, sections stained with H-E were divided into 12 representative pie-shaped areas. In each area, the number of cells within a 0.12-mm^2 field of view was counted using Sigma Scan Pro image analysis software (SPSS), and the combined mean number of cell in all 12 areas was calculated for the whole spinal cord (36 fields of view per animal). Note that as all cell nuclei were counted, the number of cells may include neurons and glial cells in addition to infiltrates.

[2] = test system: Experimental Autoimmune Encephalomyelitis (EAE); type: in vivo, guinea pig
Method: Following disease induction, as previously described, the animals were randomized into 5 five cohorts, one vehicle control and 4 treatment cohorts. Animals in the treatment cohorts were administered study drug intraperitoneally at 20 mg/kg (Symadex™dihydrochloride trihydrate) once a week for 4, 6 and 8 weeks, with an additional cohort treated once a week for 4 weeks and observed for an additional 4 weeks of treatment with vehicle solution (saline) rather than with drug.
The only significant protocol deviation from the method of Example 2 was that the pool of immunized animals was culled of animals presenting with a disease severity greater than 2 and randomized so that the mean disease severity of each cohort was matched in the severity score range of 1 to 1.5. This measure was invoked in order to avoid the chance circumstance, observed in Example 2, that animal selected for treatment should start treatment with a more severe presentation than the corresponding vehicle controls.

[3] = test system: Experimental Autoimmune Encephalomyelitis (EAE); assay: Chronic EAE, two doses 72 hours apart (Example 4); type: in vivo, guinea pig; details: 20 mg/kg i.p., 2 doses 72 hours apart
Method: In order to test the possibility that a more frequent dosing schedule would offer a more rapid resolution of disease symptoms, an experiment was performed to match the dosing cycle to the observed periodicity of response. Accordingly, the method of Experiment 2 was applied to a cohort of animals and controls, which were allowed to reach the chronic phase of disease at 30 days post immunization. Six animals with a disease score of 1 were selected and half were treated with 20 mg/kg Symadex™ administered intraperitoneally. Two dose were given 72 hours apart to 3 animals. Three animals served as vehicle controls.

[4] = test system: Collagen Antibody Induced Arthritis; assay: Collagen monoclonal antibody (mABs) + LPS induced arthritis, hind paw volume; type: in vivo, BALB/c strain mice; details: for increase in hind paw volume: oral once daily for 3 days, 30 mg/kg
Method: Groups of 3 BALB/c strain mice, 6-7 weeks of age, were used for the induction of arthritis by monoclonal antibodies (mABs) raised against type II collagen, plus lipopolysaccharide (LPS). A combination of 4 different mABs (D8, F10, DI-2G and A2) totaling 4 mg/mouse was administered to the animal intravenously on day 0, followed by intravenous challenge with […] of LPS 72 hours later (day 3). From day 3, test substance and vehicle were each administered orally once daily for 3 consecutive days. For each animal, volumes of both hind paws were measured using a plethysmometer with water cell (12 mm diameter) on Days 0, 5, 7, 10, 14 and 17. Percent inhibition of increase in volume induced by mABs+LPS was calculated by the following formula: Inhibition (%): [1−(Tn−T0)/(Cn−C0)]×100% Where: […]
C0(Cn): volume of day 0 (day n) in vehicle control
T0(Tn): volume of day 0 (day n) in test compound-treated group
Reduction of edema in the hind paws by 30% or more is considered significant.

HCT116 cell line = assay: GI50 concentration in HCT116 cells; type: cell-based; details: Homo sapiens, HCT-116
[5] = human, body surface area, as free base; cited from earlier work
[6] = CNS histopathology after treatment

## CCN(CC)CCNc1ccc2ncn3c4ccc(O)cc4c(=O)c1c23 [Symadex™, 5-[[(diethylamino)ethyl]amino]-8-hydroxyimidazo[4,5,1-de]-acridine-6-one]
T-lymphocyte cells; T-Cell + Con A
  IC50: 14 nM
T-lymphocyte cells; T-Cell + Con A, 1 nM, read-out: % Growth Inhibition
  inhibition at 0.001 µM: 10%
T-lymphocyte cells; T-Cell + Con A, 10 nM, read-out: % Growth Inhibition
  inhibition at 0.01 µM: 44%
T-lymphocyte cells; T-Cell + Con A, 0.1 μM, read-out: % Growth Inhibition
  inhibition at 0.1 µM: 82%
T-lymphocyte cells; read-out: % Growth Inhibition
  inhibition at 1 µM: 103%
  inhibition at 10 µM: 104%
[1]; 40 mg/kg i.p. once a week
  time to clinical recovery from start of treatment: ≤ 2 weeks
[1]; 20 and 40 mg/kg i.p. once a week for 4 weeks
  clinical progress and pathological findings: profound and substantial change in the clinical progress and pathological findings
[1]; [6]
  cells in existing lesions: profound loss of cells
  remyelination (myelin pallor): myelin pallor previously attributed to remyelination
[1]; treated groups vs vehicle controls, CNS histopathology
  scores for meningeal inflammation and perivascular infiltration: more severe in the treated groups than in vehicle controls
[2]; 20 mg/kg i.p. once a week for 4 weeks, then 4 weeks vehicle
  clinical scores after drug withdrawal: remained in stable disease at the time of discontinuation
[2]; 20 mg/kg i.p. once a week, 4-week treatment cycle, starting mean 1.3
  mean clinical severity score: 0.7
[2]; 20 mg/kg i.p. once a week, 6 week treatment course, control 1.3
  mean severity score: 0.3
[2]; 20 mg/kg i.p., 8 consecutive weekly doses
  clinical scores: converges on baseline at the end of the treatment course
[3]
  clinical scores: reversed the progression of disease and restored baseline clinical scores with just 2 doses
[4]; day 5, vehicle 42%
  increase in hind paw volume: 32%
[4]; day 10
  inhibition of increase in paw volume: 61%
[4]; day 10, vehicle 75%
  increase in hind paw volume: 29%
[4]; day 14
  inhibition of increase in paw volume: 74%
[4]; day 14, vehicle 70%
  increase in hind paw volume: 18%
[4]; day 17
  inhibition of increase in paw volume: 59%
[4]; day 17, vehicle 47%
  increase in hind paw volume: 19%
HCT116 cell line
  GI50: 210 nM
[5]
  safe and well-tolerated single dose: 540 mg/m^2
